Values quoted from earlier work in patent US8802627B2, “Fusion protein composed of matrix metalloproteinase-2 inhibitor peptide derived from amyloid-B precursor protein and tissue inhibitor of metalloproteinase-2” (Oriental Yeast Co., Ltd., priority 2008, dated 2014).

What was measured:
MT1-MMP catalytic domain = MT1-MMP catalytic domain (Homo sapiens, UniProt P50281); conditions: prior art literature, J. Biol. Chem. 278, 14020-14028, 2003; read-out: reported IC50 upon MT1-MMP catalytic domain
MMP-2 = molecular target: T1, MMP-2 (Homo sapiens, UniProt P08253); conditions: prior art literature, J. Biol. Chem. 278, 14020-14028, 2003; read-out: reported IC50 upon MMP-2
T1 construct: which now consists of 551 amino acid residues is designated active MMP-2
T1 sequence (P08253 110-660): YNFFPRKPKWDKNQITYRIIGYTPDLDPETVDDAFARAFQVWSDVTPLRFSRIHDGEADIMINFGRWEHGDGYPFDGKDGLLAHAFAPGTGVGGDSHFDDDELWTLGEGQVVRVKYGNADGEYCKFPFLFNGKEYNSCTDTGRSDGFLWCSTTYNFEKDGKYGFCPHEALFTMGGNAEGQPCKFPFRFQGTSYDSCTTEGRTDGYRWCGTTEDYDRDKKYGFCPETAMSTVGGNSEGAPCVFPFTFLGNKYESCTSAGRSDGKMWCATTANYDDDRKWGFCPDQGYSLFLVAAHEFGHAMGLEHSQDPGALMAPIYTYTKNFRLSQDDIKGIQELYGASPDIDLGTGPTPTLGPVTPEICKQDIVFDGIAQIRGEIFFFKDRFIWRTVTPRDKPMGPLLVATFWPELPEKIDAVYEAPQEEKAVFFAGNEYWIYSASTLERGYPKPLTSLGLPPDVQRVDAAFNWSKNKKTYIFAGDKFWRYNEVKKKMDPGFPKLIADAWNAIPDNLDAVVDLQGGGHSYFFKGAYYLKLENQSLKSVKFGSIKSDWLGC

MMP-7 = molecular target: T2, MMP-7 (Homo sapiens, UniProt P09237); conditions: prior art literature, J. Biol. Chem. 278, 14020-14028, 2003; read-out: reported IC50 upon MMP-7
T2 sequence (P09237 95-267): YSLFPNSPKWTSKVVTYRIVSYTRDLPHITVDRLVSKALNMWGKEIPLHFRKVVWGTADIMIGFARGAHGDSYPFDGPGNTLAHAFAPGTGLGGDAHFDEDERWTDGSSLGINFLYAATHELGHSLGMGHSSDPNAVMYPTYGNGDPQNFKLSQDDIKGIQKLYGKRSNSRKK

MMP-9 = MMP-9 (Homo sapiens, UniProt P14780); conditions: prior art literature, J. Biol. Chem. 278, 14020-14028, 2003; read-out: reported IC50 upon MMP-9
Chain of MMP-9 (P14780 94-707): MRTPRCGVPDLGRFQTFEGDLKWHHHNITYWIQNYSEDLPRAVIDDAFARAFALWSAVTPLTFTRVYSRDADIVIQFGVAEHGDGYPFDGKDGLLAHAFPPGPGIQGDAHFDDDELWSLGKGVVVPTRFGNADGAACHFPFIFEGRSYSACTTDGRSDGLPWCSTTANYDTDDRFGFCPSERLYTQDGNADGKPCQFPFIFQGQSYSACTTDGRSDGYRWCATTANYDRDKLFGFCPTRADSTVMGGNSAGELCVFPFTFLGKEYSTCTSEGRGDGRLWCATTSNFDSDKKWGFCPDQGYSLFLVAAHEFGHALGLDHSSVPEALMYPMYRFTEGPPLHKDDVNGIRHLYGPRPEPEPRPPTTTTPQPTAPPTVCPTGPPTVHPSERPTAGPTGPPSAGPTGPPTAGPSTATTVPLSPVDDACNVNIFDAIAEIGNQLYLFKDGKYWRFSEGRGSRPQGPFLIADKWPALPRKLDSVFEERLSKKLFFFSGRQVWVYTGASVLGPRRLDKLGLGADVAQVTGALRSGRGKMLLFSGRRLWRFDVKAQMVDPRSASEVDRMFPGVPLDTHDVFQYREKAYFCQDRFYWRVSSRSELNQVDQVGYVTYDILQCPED

IC50 (MT1-MMP catalytic domain): 2 µM
IC50 (MMP-2): 0.03 µM
IC50 (MMP-7): 15 µM
IC50 (MMP-9): 20 µM
Sequence: ISYGNDALMP [APP-IP]
